The target in assay [1] is T1, Serine/threonine-protein kinase 36 (Homo sapiens) (UniProt Q9NRP7).
T1 sequence (whole entry): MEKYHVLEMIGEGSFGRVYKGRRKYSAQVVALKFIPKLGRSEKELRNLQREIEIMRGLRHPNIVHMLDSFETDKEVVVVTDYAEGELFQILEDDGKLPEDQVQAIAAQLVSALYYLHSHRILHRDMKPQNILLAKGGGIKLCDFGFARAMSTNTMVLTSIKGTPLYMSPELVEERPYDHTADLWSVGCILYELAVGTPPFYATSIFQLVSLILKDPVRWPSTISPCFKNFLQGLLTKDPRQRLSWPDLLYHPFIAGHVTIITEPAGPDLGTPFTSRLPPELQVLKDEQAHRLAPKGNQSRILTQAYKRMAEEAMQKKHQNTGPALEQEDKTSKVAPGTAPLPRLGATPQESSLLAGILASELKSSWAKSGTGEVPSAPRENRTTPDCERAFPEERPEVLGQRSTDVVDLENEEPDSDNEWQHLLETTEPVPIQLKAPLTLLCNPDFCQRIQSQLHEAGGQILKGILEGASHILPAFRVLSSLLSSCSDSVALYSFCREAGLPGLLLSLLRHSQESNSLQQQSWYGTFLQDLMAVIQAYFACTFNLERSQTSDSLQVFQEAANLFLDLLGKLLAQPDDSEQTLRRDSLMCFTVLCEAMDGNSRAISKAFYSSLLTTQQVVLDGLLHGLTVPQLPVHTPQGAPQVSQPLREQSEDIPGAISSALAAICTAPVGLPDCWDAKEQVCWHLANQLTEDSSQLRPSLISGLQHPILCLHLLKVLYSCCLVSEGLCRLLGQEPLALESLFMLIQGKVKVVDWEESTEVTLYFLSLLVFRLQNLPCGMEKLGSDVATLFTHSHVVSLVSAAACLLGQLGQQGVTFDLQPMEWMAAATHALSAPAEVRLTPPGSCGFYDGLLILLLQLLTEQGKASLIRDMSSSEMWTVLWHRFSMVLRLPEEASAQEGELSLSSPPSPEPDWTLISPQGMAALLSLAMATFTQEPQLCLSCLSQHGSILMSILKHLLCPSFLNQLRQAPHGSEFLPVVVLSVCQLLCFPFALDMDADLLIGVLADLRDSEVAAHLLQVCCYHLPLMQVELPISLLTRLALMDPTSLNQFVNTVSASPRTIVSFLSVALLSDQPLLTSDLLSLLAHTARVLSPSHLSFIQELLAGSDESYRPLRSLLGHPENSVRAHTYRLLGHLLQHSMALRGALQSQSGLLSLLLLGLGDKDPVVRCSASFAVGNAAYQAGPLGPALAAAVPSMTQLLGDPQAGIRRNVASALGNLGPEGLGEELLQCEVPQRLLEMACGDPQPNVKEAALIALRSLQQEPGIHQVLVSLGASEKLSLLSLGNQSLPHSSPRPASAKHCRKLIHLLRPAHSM
The following applies: at 10 µM.

Assay [2] addresses T2, SNF-related serine/threonine-protein kinase (Homo sapiens) (UniProt Q9NRH2).
T2 sequence (whole entry): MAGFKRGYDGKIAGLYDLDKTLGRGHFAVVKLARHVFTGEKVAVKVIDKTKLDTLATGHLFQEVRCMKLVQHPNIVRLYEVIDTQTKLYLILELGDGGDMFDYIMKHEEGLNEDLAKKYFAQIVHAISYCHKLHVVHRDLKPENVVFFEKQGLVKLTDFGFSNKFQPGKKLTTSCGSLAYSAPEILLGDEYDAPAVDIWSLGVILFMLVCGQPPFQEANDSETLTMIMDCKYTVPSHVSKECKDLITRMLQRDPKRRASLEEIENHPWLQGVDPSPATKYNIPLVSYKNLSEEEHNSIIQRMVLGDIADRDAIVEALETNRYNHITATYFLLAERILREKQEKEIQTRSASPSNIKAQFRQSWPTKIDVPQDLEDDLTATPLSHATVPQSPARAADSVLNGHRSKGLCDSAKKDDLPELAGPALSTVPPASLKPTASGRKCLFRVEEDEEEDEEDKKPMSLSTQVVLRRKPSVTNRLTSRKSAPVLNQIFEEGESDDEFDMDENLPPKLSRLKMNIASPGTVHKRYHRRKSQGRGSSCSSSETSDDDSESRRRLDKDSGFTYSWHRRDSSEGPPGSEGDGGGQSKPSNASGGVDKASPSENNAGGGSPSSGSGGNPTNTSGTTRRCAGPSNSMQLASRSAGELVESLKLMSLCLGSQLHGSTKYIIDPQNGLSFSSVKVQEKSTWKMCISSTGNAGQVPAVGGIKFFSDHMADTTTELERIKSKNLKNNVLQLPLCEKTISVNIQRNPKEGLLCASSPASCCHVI
The assay can be described thus: Selectivity interaction (KinomeScan (DiscoverX)) EUB0000695a SNRK. The following applies: at 100 nM.

In assay [3] the target is Phosphatidylinositol 4-kinase beta (Homo sapiens, UniProt Q9UBF8). Kind of assay: Selectivity interaction (ActivX KiNativ screen (kinase selectivity in THP-1 cell lysates)) EUB0000639a PI4KB. Format: subcellular. The following applies: lysate, at 1 µM.
Chain of Phosphatidylinositol 4-kinase beta (Q9UBF8 2-816 limits assumed): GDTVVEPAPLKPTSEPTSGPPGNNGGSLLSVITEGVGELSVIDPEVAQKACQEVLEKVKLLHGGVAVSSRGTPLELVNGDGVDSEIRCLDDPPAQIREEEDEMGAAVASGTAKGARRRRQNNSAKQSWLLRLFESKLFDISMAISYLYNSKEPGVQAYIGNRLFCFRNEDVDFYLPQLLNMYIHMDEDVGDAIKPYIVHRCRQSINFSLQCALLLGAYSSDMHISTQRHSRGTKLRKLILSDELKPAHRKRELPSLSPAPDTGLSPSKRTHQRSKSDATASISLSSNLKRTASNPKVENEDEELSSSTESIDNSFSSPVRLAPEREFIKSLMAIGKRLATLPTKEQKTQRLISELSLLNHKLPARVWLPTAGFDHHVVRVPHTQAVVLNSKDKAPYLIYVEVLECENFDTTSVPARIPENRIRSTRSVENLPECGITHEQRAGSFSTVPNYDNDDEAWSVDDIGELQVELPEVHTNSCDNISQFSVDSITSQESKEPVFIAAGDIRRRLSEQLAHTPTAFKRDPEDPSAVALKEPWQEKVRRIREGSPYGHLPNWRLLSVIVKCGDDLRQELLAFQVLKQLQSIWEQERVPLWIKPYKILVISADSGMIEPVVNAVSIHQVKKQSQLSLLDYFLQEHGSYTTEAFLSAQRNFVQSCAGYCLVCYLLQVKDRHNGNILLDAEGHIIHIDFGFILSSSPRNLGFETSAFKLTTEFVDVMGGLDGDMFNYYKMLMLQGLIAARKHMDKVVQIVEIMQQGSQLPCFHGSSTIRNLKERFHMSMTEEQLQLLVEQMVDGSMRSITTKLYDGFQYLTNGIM
Assay [4] relates to Tyrosine-protein kinase ABL1 (Homo sapiens), P00519 [F317I]. The assay can be described thus: Selectivity interaction (KinomeScan (DiscoverX)) EUB0000655a ABL1. The following applies: at 10 µM.
Chain of Tyrosine-protein kinase ABL1 (Homo sapiens), P00519 [F317I] (P00519 whole entry F317I): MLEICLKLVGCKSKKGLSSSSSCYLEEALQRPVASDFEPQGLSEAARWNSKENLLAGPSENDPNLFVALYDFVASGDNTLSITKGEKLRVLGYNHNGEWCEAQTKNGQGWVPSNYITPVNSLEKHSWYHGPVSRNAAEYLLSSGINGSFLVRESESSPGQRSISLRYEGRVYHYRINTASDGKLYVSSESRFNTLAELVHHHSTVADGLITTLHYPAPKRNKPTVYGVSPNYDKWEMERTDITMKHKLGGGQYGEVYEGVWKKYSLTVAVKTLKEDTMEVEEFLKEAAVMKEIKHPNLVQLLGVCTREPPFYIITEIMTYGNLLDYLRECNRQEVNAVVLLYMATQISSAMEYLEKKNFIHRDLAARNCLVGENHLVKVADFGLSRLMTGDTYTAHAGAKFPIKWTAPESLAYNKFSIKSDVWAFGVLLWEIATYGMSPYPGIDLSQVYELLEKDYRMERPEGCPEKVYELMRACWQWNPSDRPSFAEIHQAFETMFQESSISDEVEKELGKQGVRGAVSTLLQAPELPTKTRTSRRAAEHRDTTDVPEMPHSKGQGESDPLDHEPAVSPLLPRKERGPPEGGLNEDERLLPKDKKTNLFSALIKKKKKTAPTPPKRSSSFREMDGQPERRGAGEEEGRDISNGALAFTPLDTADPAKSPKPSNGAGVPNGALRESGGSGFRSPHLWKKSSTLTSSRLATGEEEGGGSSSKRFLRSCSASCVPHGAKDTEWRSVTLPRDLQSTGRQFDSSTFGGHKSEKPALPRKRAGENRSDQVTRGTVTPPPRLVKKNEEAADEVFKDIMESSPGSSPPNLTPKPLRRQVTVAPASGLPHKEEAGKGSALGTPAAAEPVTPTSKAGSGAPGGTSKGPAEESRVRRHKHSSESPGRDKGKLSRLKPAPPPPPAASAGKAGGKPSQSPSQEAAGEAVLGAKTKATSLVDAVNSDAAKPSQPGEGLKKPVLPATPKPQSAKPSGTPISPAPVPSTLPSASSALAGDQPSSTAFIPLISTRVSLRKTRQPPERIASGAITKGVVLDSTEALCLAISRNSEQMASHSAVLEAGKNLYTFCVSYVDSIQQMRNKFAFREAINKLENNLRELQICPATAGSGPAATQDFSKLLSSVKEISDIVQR
Assay [5] concerns the target T3, Myosin light chain kinase family member 4 (Homo sapiens) (UniProt Q86YV6).
T3 sequence (whole entry): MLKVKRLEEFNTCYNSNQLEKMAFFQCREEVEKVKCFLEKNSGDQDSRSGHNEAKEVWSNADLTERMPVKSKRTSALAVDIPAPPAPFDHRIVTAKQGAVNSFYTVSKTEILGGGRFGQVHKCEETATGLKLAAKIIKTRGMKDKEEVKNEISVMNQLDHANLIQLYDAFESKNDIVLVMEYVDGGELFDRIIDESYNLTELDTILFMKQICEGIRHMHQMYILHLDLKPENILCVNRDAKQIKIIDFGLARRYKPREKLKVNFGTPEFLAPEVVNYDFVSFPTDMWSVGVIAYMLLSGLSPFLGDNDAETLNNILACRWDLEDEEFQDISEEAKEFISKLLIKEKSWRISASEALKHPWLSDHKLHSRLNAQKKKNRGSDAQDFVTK
The assay can be described thus: Selectivity interaction (KinomeScan (DiscoverX)) EUB0000229b MYLK4. The following applies: at 10 µM.

SMILES strings stand for the structures.

Regarding `CCN(CC)CCCCNc1ncc2cc(-c3cc(OC)cc(OC)c3)c(NC(=O)NC(C)(C)C)nc2n1`, in assay [1], the % of control is 100%.

`Cc1cc(F)c(C(=O)Nc2cccc(-c3nncn3C(C)C)n2)cc1-n1cnc(C2CC2)c1`: in assay [2], the % of control came out at 97%.

Consider `CC[C@@H]1[C@H](F)C(=O)N[C@@H]1COc1nccc2cc(C(N)=O)c(OC)cc12` [ZIMLOVISERTIB], for which the % of inhibition in assay [3] was -19.1%.

`CN(C)CCOc1ccc(-c2nc(-c3ccncc3)c(-c3ccc4c(c3)CC/C4=N\O)[nH]2)cc1`: the % of control in assay [4] is 81%.

Take `COc1cc(N(C)c2ccnc3ccc(C(F)(F)F)cc23)cc(OC)c1OC`: the % binding in assay [5] amounted to 98%.

Source of the values: ChEMBL document CHEMBL5465560, “Selectivity Literature for EUbOPEN Chemogenomic Library” (2024).
